# Experimental data from US20150005390A1, “METHOD FOR TREATING INFLAMMATORY DISORDER” (National Defense Medical Center, priority 2013, published 2015).
# Assays:
# [1] = system: ovariectomy-induced bone loss; settings: through inhibiting osteoclastogenesis; cited from earlier work
# [2] = system: TNF-α expression in RAW 264.7 macrophages; assay: TNF-α ELISA in LPS-activated macrophages; format: cell-based, murine; settings: RAW 264.7 macrophages pretreated with creosol 30 minutes, then LPS 1 μg/ml 24 hours; FIG. 1C
# Experimental: (§1) Cells were seeded in 6-well plates at a density of 5×10^5 cells/ml, and then incubated with or without LPS (1 μug/ml) in the absence or presence of tested samples for 24 hours. The effects of the tested samples on TNF-α, IL-6 and IL-1β production were measured by ELISA according to the manufacturer's protocol. Briefly, 50 μl of biotinylated antibody reagent and 50 μl of supernatant were added to an anti-mouse TNF-α, IL-6 and IL-1β precoated stripwell plate, and incubated at room temperature for 2 hours. After washing the plate three times with the washing buffer, 100 μl of diluted streptavidin-HRP (horseradish peroxidase) concentrate was added to each well and the plate was incubated at room temperature for 30 minutes. The washing process was repeated; then, 100 μl of a premixed tetramethylbenzidine substrate solution was added to each well and developed at room temperature, in the dark, for 30 minutes. Following the addition of 100 μl of stop solution to each well to stop the reaction, the absorbance of the plate was measured by a microplate reader at a 450 nm wavelength. As shown in FIG. 1B and FIG. 1C, RAW 264.7 macrophages (5×10^5/ml) were pretreated with creosol for 30 minutes, followed by stimulating with LPS (1 μg/ml) for 24 hours. IL-6 and TNF-α concentration in culture medium was assayed by ELISA.
# [3] = system: IL-1β precursor expression in J774A.1 cells; assay: IL-1β precursor expression, Western blot in LPS-activated macrophages; format: cell-based, mouse; settings: J774A.1 cells incubated with creosol 30 minutes, then LPS 6 hours; FIG. 2E
# Experimental: (§2) Whole cell lysates were separated by SDS-PAGE and electrotransferred to a PVDF (polyvinylidene fluoride) membrane. The membranes were incubated in a blocking solution—5% nonfat milk in phosphate buffered saline with 0.1% Tween 20—at room temperature for 1 hour. Each membrane was incubated with a specific primary antibody, at room temperature, for 2 hours. After washing the membrane three times in PBS with 0.1% Tween 20, it was incubated with an HRP-conjugated secondary antibody directed against the primary antibody. The membrane was developed by an enhanced chemiluminescence Western blot detection system.
# (§3) J774A.1 cells (1×10^6/ml) were primed with LPS for 5.5 hours, followed by treatment with creosol for 30 minutes, and then stimulated with ATP (5 mM) for an additional 30 minutes. […] Data is expressed as the mean±SE from three separate experiments (wherein *p<0.05). In FIG. 2B, the expression of caspase-1 (p45) and cleaved caspase-1 (p10) were analyzed by Western blot. […] Data is expressed as the mean±SE from three separate experiments (wherein *p<0.05). The expressions of caspase-1 (p45) and cleaved caspase-1 (p10) were analyzed by Western blot, and the result of one of the three separate experiments is shown in FIG. 2D. […] The expressions of NLRP3 inflammasomes and IL-1β precursor were analyzed by Western blot. […]
# [4] = system: cultured rat hippocampal neurons; settings: cultured rat hippocampal neurons exposed to N-methyl-D-aspartate or H2O2; cited from earlier work
# [5] = system: IL-1β secretion in J774A.1 cells; assay: IL-1β secretion ELISA in ATP stimulated LPS-primed macrophages (NLRP3 inflammasome activation); format: cell-based, mouse
# Experimental: Cells were seeded in 6-well plates at a density of 5×10^5 cells/ml, and then incubated with or without LPS (1 μug/ml) in the absence or presence of tested samples for 24 hours. The effects of the tested samples on TNF-α, IL-6 and IL-1β production were measured by ELISA according to the manufacturer's protocol. Briefly, 50 μl of biotinylated antibody reagent and 50 μl of supernatant were added to an anti-mouse TNF-α, IL-6 and IL-1β precoated stripwell plate, and incubated at room temperature for 2 hours. […] Following the addition of 100 μl of stop solution to each well to stop the reaction, the absorbance of the plate was measured by a microplate reader at a 450 nm wavelength.
# as §3
# [6] = system: IL-6 expression in RAW 264.7 macrophages; assay: IL-6 ELISA in LPS-activated macrophages; format: cell-based, murine; settings: RAW 264.7 macrophages pretreated with creosol 30 minutes, then LPS 1 μg/ml 24 hours; FIG. 1B
# Experimental: as §1
# [7] = system: caspase-1 activation in J774A.1 cells; assay: Caspase-1 activation, Western blot of p10 subunit in ATP stimulated LPS-primed macrophages; format: cell-based, mouse; settings: then ATP 30 minutes
# Experimental: as §2, §3
# [8] = system: NLRP3 expression in J774A.1 cells; assay: NLRP3 expression, Western blot in LPS-activated macrophages; format: cell-based, mouse; settings: J774A.1 cells incubated with creosol 30 minutes, then LPS 6 hours; FIG. 2E
# Experimental: as §2, §3
# [9] = system: NO production in RAW 264.7 macrophages; assay: NO inhibitory assay (Griess reaction) in LPS-activated macrophages; format: cell-based, murine; settings: RAW 264.7 macrophages pretreated with creosol 30 minutes, then LPS 1 μg/ml 24 hours; FIG. 1A
# Experimental: RAW 264.7 cells were seeded in 24-well plates at a density of 5×10^5 cells/ml, and then incubated with or without LPS (1 μg/ml) in the absence or presence of tested samples for 24 hours. The effects of creosol on NO production were measured indirectly by the analysis of nitrite levels, using the Griess reaction. The effects of creosol on the expression of inflammatory mediators were analyzed. In the present invention, RAW 264.7 macrophages (5×10^5/ml) were pretreated with creosol for 30 minutes, followed by stimulation with LPS (1 μg/ml) for 24 hours. NO concentration in culture medium was assayed by the Griess reaction.
structure (smiles),measurement,setting,value
"COc1cc(C)ccc1O [creosol, 2-methoxy-4-methylphenol]",prevention of ovariectomy-induced bone loss,[1],able to prevent ovariectomy-induced bone loss
same,TNF-α expression,[2],not able to inhibit TNF-α expression
same,IL-1β precursor expression,[3],significantly inhibited the IL-1[…] precursor expression
same,prevention of cell death of neurons,[4],able to prevent the cell death
same,IL-1β secretion,"[5]; J774A.1 cells incubated with creosol 30 minutes before LPS-priming, washed out, then ATP 30 minutes, FIG. 2C",inhibited IL-1β secretion in a dose-dependent fashion
same,IL-1β secretion,"[5]; LPS-primed J774A.1 cells incubated with creosol 30 minutes, then ATP 5 mM 30 minutes, FIG. 2A",inhibited IL-1β secretion slightly
same,IL-6 expression,[6],able to inhibit IL-6 expression in a dose-dependent manner
same,caspase-1 activation,"[7]; J774A.1 cells incubated with creosol 30 minutes before LPS-priming, washed out, FIG. 2D",inhibited by creosol in a dose-dependent fashion
same,caspase-1 activation,"[7]; LPS-primed J774A.1 cells incubated with creosol 30 minutes, FIG. 2B",inhibited caspase-1 activation slightly
same,NLRP3 expression,[8],inhibited NLRP3 expression slightly
same,expression of NO,[9],inhibited in creosol-pretreated cells in a dose-dependent manner
